The nature of one data set: in vivo. The following applies: for LD50: in vivo, ip. The procedure: (§1) Psychoneurotropic activity of the declared compounds and their influence on learning and memory were observed using unbred male (18-20 g) mice and 180-200 g) rats, held at standard conditions (room temperature 21°-22° C., 12-hours lighting schedule, food and water ad libitum).
Acute toxicity was studied by the method of Kerber with intra peritoneal drug injection.

The test system of data set [1] is mice. The experiment in a line: Psychotropic activity test: arecoline induced hyperkynesis. Conditions: intraperitoneally, dose 1/20 of LD. It is filed as in vivo.
For data set [2], the system named is membranes of brain synaptosomes. The experiment in a line: Microviscosity of brain synaptosome membranes, amnestic syndrome model. Conditions: rats; scopolamine 20 days, then drug 10 days; brain synaptosomes. Type of data set: in vivo, rats.
The subject of data set [3] is rats. The experiment in a line: Passive avoidance test in normal rats, 50% acquisition. Type of data set: in vivo. Conditions: Rattus norvegicus, ip, 20 min, read-out: Increase of the number of correct trails (% to control). Passive avoidance test (rats). The gist of the method: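 Unbred rats (180–200 g) were kept at 21–22 °C on a 12-h light cycle with free food and water. Passive avoidance was run under 50% acquisition conditions within 24 h after the last dose. Effect was scored as the rise in the proportion of learned animals versus controls.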

The subject of the next data set is old rats. Kind of data set: Passive avoidance test in old rats. It is filed as in vivo. Conditions: for Passive avoidance latency in 7 days after training: old rats (18 month), 20 days application, 1 mg/kg (piracetam 250 mg/kg). The procedure: The influence of drugs on reflex conditioning in rats was studied by the passive avoidance test in conditions of 50% acquisition. The effect of the compound was estimated by the increase of the relative number of learned animals with respect to that of control group. […] The other reference drug--noothropic agent piracetam--was given in the dose 250 mg/kg 60 min before training. Amnestic syndrome was stimulated by 20 days application of Sc at the daily dose of 1 mg/kg intraperitoneally. […] The passive avoidance test was performed within 24 hours after the last application of test preparations.
Improvement of animal performance was accompanied by the normalizing of brain synaptosomes microviscosity under the action of all the substances tested. […] The latter observation indicates to the possible interference of amiridine and substance Vo into the processes of atherogenesis in old animals.

Data set [4] relates to mice. Kind of data set: Step-down test, scopolamine induced amnesia. It is filed as in vivo. The procedure: as §1
The test system of data set [5] is mice. Kind of data set: Psychotropic activity test: motor activity. It is filed as in vivo. The following applies: intraperitoneally, dose 1/20 of LD.
The test system of the next data set is brain synaptosomes. The experiment in a line: Cholesterol content in brain synaptosomes, old rats. It is filed as in vivo. The following applies: for Cholesterol content of brain synaptosomes, old rats: 20 days course; for Cholesterol content in synaptosomes (% from total lipid content): old rats (18 month), 20 days application.
Data set [6] concerns rats. The experiment in a line: Passive avoidance test on the model of amnestic syndrome (multiple scopolamine injection). Type of data set: in vivo. The procedure:
The influence of drugs on reflex conditioning in rats was studied by the passive avoidance test in conditions of 50% acquisition. The effect of the compound was estimated by the increase of the relative number of learned animals with respect to that of control group. […] The passive avoidance test was performed within 24 hours after the last application of test preparations.

Data set [7] relates to membranes of brain synaptosomes. The experiment in a line: Microviscosity of brain synaptosome membranes, old rats. Type of data set: in vivo. The following applies: old rats (18 month), 20 days application. The procedure: Microviscosity of membranes of brain synaptosomes was studied with the use of molecular probe pirren. Brain tissue homogenization and preparation of synaptosomes were performed by the method of De Robertis.

In data set [8] the test system is rat adipocytes. Kind of data set: Lipid content in incubation medium after incubation of adipocytes. Type of data set: cell-based. Conditions: incubation medium; Table 12. The procedure: Lipid regulative activity of the declared compounds--derivatives of 9-amino acridine--were evaluated in vitro[…] using rat adipocytes. Adipocytes were separated from adipose tissue of testis appendages of adult male rats. Lipid composition analysis was performed by the method of thin-layer chromatography.
Quantitative analysis of phospholipids (PL), mono- and diacylglycerides (MDG), triacylglycerides (TG), free fatty acids (FFA), free cholesterol (FCL), and methyl esters of fatty acids (MEFA) was performed by the method of spectrophotometry.

A further data set deals with K channels. Kind of data set: Ionic permeabilities of excitable membranes, voltage clamp in the Ranvier node. Type of data set: cell-based, frog.
Data set [9] relates to rat adipocytes. The experiment in a line: Lipid composition of adipocytes after incubation with compounds. It is filed as cell-based. Summed up:
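Adipocytes isolated from testis-appendage adipose tissue of adult male rats and incubated with 9-aminoacridine derivatives. Lipids separated by thin-layer chromatography. PL, MDG, TG, FFA, FCL and MEFA quantified spectrophotometrically.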

[10] abbreviates: intraperitoneal injection, Table 5, read-out: LD50 (mg/kg) by Kerber.
The mark [11] stands for this setting: rats, scopolamine 1 mg/kg 20 days, then drug 10 days (1 mg/kg; piracetam 250 mg/kg).
Setting [12] is: distribution between cells and incubation medium, Table 13.

Like-named read-outs stand apart in the source and are kept apart here.

On to `Nc1c2c(nc3c1CCC3)CCCC2` [Amiridine, amiridine, reference compound], for which the LD50 in the data set “in vivo” (setting [10]) amounted to 52 ± 3.4 mg/kg. Further, the LD50 in the data set “in vivo” (read-out: LD) worked out at 35 mg/kg. In the data set on mice [1], the “Increase of duration of arecoline induced hyperkynesis (% to control)” value (“Increase of duration … (% to control)” for short) is recorded as 100 % to control. Besides, in [2], the “Microviscosity changes in % to control” value is reported as 105.0 % to control. Further, the change in vivo at 0.1 mg/kg in the data set on rats [3] (rats, 0.1 mg/kg i.p. 20 min before training, piracetam 250 mg/kg 60 min before training) turned out to be 70%. Besides, the “Passive avoidance latency in 7 days after training” value (from here on “Passive avoidance latency in 7 days”) in the data set with old rats was found to be 116.1 ± 16.9 s. Besides, the “Antiamnestic activity in Step-down test (% of mice with latency > cut off)” value in the data set with mice [4] is 33 % of mice. Moreover, the “Motor activity increment (% to control)” value with mice [5] was 45 % to control. Moreover, in the data set on brain synaptosomes, the “Cholesterol content of brain synaptosomes, old rats” value is reported as “normalized the cholesterol content of brain synaptosomes” and the “Cholesterol content in synaptosomes (% from total lipid content)” value is listed as 33.2 ± 0.8 % from total lipid content. For the same compound, the “Passive avoidance latency” value with rats [6] (setting [11]) turned out to be 149.0 ± 11.7 s. Moreover, the “Microviscosity changes (% to control)” value in data set [7] is 101.7 % to control.

Regarding `Nc1c2c(nc3ccccc13)CCCC2` [Tacrine, tacrine, reference compound], the LD50 is 35.5 ± 1.8 mg/kg in the data set “in vivo” (setting [10]) and 52 mg/kg in the data set “in vivo” (read-out: LD). In the data set on mice [1], the “Increase of duration … (% to control)” value is 88 % to control. Moreover, the “Microviscosity changes in % to control” value in [2] is recorded as 97.2 % to control. Also, in the data set on rats [3], the change in vivo at 0.1 mg/kg was 25%. The “Passive avoidance latency in 7 days” value with old rats was found to be 163.4 ± 16.5 s. The “Antiamnestic activity in Step-down test (% of mice with latency > cut off)” value with mice [4] is 33 % of mice. For the same compound, the “Motor activity increment (% to control)” value in the data set with mice [5] was 0 % to control. For the same compound, in the data set on brain synaptosomes, the “Cholesterol content in synaptosomes (% from total lipid content)” value is 39.7 ± 1.4 % from total lipid content. Also, the “Passive avoidance latency” value in the data set on rats [6] (1 mg/kg) is 169.0 ± 14.8 s. In addition, the “Microviscosity changes (% to control)” value in [7] was 101.4 % to control.

For `CCCCNc1c2c(nc3ccccc13)CC(C)(C)CC2=O` [Vp], the “LD50 (mg/kg) by Kerber” value in the data set “in vivo” (intraperitoneal injection, Table 5) came out at 200.0 ± 21.9 mg/kg. Further, in the data set with mice [1], the “Increase of duration … (% to control)” value is on record as 0 % to control. Besides, the “Microviscosity changes in % to control” value in [2] is 93.8 % to control. The change in vivo at 0.1 mg/kg with rats [3] was 25%. In addition, in the data set with rat adipocytes [8], the “FFA/TG in incubation medium” value was determined as 0.92, the “PL/CL in incubation medium” value came to 0.65 and the “PL/TG in incubation medium” value came out at 0.52. Moreover, the “Performance of old rats in passive avoidance test” value in the data set on old rats (20 days course, age 18 months) was “improved performance of old rats (age 18 months) in passive avoidance test more significantly than in 6 month old adult rats”. In addition, the “Passive avoidance latency in 7 days” value with old rats was found to be 169.4 ± 10.5 s. Moreover, the “Capability to induce the shift of potassium permeability voltage dependency” value with K channels is on record as “most pronounced capability to induce the shift of potassium permeability voltage dependency”. Also, the “Lipid-regulative effect compared with probucol” value in the data set on rat adipocytes [9] was “not inferior”. Moreover, in the data set with rat adipocytes [9] (cells, Table 11), the FFA/TG in adipocytes was 1.03, the PL/CL in adipocytes was 0.83 and the PL/TG in adipocytes turned out to be 0.89. In addition, in the data set with rat adipocytes [9] (setting [12]), the FFAc/FFAm was 0.93 and the PLc/PLm came to 1.41. For the same compound, in the data set on mice [4], the “Antiamnestic activity in Step-down test” value is “pronounced antiatonestic activity, comparable with that of amiridine and tacrine”; the “Antiamnestic activity in Step-down test (% of mice with latency > cut off)” value is 25 % of mice. Also, in the data set on mice [5], the “Motor activity increment (% to control)” value is listed as 69 % to control. Moreover, in the data set with brain synaptosomes, the “Cholesterol content of brain synaptosomes, old rats” value was “normalized the cholesterol content of brain synaptosomes” and the “Cholesterol content in synaptosomes (% from total lipid content)” value is listed as 30.1 ± 2.4 % from total lipid content. The “Passive avoidance latency” value in the data set on rats [6] (setting [11]) came to 170.3 ± 14.9 s. Also, the “Microviscosity changes (% to control)” value in [7] was 97.9 % to control.

The values above are taken from patent publication US5672707A (priority 1991, dated 1997).
